Measurements reported in ChEMBL document CHEMBL2157884, “Scaffold-hopping with zwitterionic CCR3 antagonists: identification and optimisation of a series with good potency and pharmacokinetics leading to the discovery of AZ12436092” (Bioorg Med Chem Lett, 2012).

Tests used:
in vitro = settings: human
physchem = settings: buffer, pH 7.4
in vivo = settings: rat, iv
[1] = Oral bioavailability in rat; type: ADME, organism-based; settings: in vivo
Hepatocyte = test: Intrinsic clearance in rat hepatocytes measured per 10^6 cells; type: ADME, cell-based
[2] = Half life in iv dosed dog; type: ADME, organism-based, Canis lupus familiaris; settings: in vivo
[3] = Oral bioavailability in dog; type: ADME, organism-based, Canis lupus familiaris; settings: in vivo

| microsomal CLint (in vitro; liver microsomes) [µL/min/mg] | logD (physchem) | Compound | also measured |
| --- | --- | --- | --- |
| < 3 | 2.5 | Cc1ccccc1C[C@@H](C(=O)O)N1CCC(CN2CCC(Oc3ccc(Cl)c(Cl)c3)CC2)CC1 |  |
|  | 2.2 | O=C(O)c1cccc(N2CCC(CN3CCC(Oc4ccc(Cl)c(Cl)c4)CC3)CC2)c1 |  |
| < 5 |  | O=C(O)[C@H](Cc1ccccc1Cl)N1CCC(CN2CCC(Oc3ccc(Cl)c(Cl)c3)CC2)CC1 |  |
| < 3 |  | Cc1cc(F)ccc1OC1CCN(CC2CCN([C@@H](Cc3ccc(F)cc3)C(=O)O)CC2)CC1 |  |
|  | 1.9 | O=C(O)[C@H](Cc1ccc(F)cc1)N1CCC(CN2CCC(Oc3ccc(Cl)cc3)CC2)CC1 |  |
|  | 2.6 | O=C(O)[C@H](Cc1ccccc1F)N1CCC(CN2CCC(Oc3ccc(Cl)c(Cl)c3)CC2)CC1 |  |
|  |  | O=C(O)C(c1ccccc1)N1CCC(CN2CCC(Oc3ccc(Cl)c(Cl)c3)CC2)CC1 (racemic) | CLint scaled (in vitro; microsomes): < 3 mL/min/kg |
|  | 2.8 | O=C(O)c1ccccc1N1CCC(CN2CCC(Oc3ccc(Cl)c(Cl)c3)CC2)CC1 | half-life (in vivo): 4.1 h; bioavailability [1]: 58% |
|  | 1.6 | O=C(O)Cc1cccc(N2CCC(CN3CCC(Oc4ccc(Cl)c(Cl)c4)CC3)CC2)c1 |  |
|  |  | O=C(O)[C@@H](c1ccccc1)N1CCC(CN2CCC(Oc3ccc(Cl)c(Cl)c3)CC2)CC1 | half-life (in vivo): 4.8 h; CLint scaled (in vitro; microsomes): < 3 mL/min/kg; bioavailability [1]: 5% |
| < 3 | 2.5 | O=C(O)[C@@H](Cc1ccccc1)N1CCC(CN2CCC(Oc3ccc(Cl)c(Cl)c3)CC2)CC1 |  |
|  | 3 | Cc1c(OC2CCN(CC3CCN([C@@](C)(Cc4ccc(F)cc4)C(=O)O)CC3)CC2)ccc(Cl)c1Cl |  |
|  | 2 | Cc1cc(F)ccc1OC1CCN(CC2CCN([C@@](C)(Cc3ccc(F)cc3)C(=O)O)CC2)CC1 | bioavailability [1]: 24% |
| 8 | 2.8 | COc1ccccc1C[C@@H](C(=O)O)N1CCC(CN2CCC(Oc3ccc(Cl)c(Cl)c3)CC2)CC1 |  |
| 7 |  | O=C(O)[C@H](Cc1cccc(C(F)(F)F)c1)N1CCC(CN2CCC(Oc3ccc(Cl)c(Cl)c3)CC2)CC1 |  |
| < 3 | 3.5 | Cc1c(OC2CCN(CC3CCN([C@@H](Cc4ccc(F)cc4)C(=O)O)CC3)CC2)ccc(Cl)c1Cl | half-life (in vivo): 10 h; CLH (Hepatocyte): < 3 µL/min/1e6 cells |
| < 3 | 2.5 | O=C(O)[C@H](Cc1ccccc1)N1CCC(CN2CCC(Oc3ccc(Cl)c(Cl)c3)CC2)CC1 | half-life (in vivo): 12 h; bioavailability [1]: 62% |
|  | 2.6 | Cc1cc(Cl)ccc1OC1CCN(CC2CCN([C@@](C)(Cc3ccc(F)cc3)C(=O)O)CC2)CC1 | half-life (in vivo): 8.7 h; half-life [2]: 12 h; bioavailability [1]: 52%; bioavailability [3]: 83% |
| 14 | 3 | Cc1ccc(C[C@@H](C(=O)O)N2CCC(CN3CCC(Oc4ccc(Cl)c(Cl)c4)CC3)CC2)cc1 |  |
|  |  | O=C(O)C(c1ccccc1)N1CCO[C@H](CN2CCC(Oc3ccc(Cl)c(Cl)c3)CC2)C1 (mixture of isomers) | bioavailability [1]: 36% |
|  |  | O=C(O)[C@H](c1ccccc1)N1CCC(CN2CCC(Oc3ccc(Cl)c(Cl)c3)CC2)CC1 | CLint scaled (in vitro; microsomes): < 3 mL/min/kg |

| microsomal CLint (in vitro; liver microsomes) [µL/min/mg] | logD (physchem) | Compound | also measured |
| --- | --- | --- | --- |
|  |  | O=C(O)C(c1ccccc1)N1CCC(N2CCC(Oc3ccc(Cl)c(Cl)c3)CC2)CC1 (racemic) | half-life (in vivo): 2.4 h; CLint scaled (in vitro; liver microsomes): 6 mL/min/kg; bioavailability [1]: 13% |
|  | 2 | O=C(O)COc1ccccc1N1CCC(CN2CCC(Oc3ccc(Cl)c(Cl)c3)CC2)CC1 |  |
|  | 1.7 | O=C(O)c1cccnc1N1CCC(CN2CCC(Oc3ccc(Cl)c(Cl)c3)CC2)CC1 |  |
|  | 2.3 | O=C(O)c1ccc(N2CCC(CN3CCC(Oc4ccc(Cl)c(Cl)c4)CC3)CC2)cc1 |  |
|  | 2.5 | Cc1cc(Cl)ccc1OC1CCN(CC2CCN([C@@H](Cc3ccc(F)cc3)C(=O)O)CC2)CC1 |  |
| < 5 | 2.3 | N#Cc1cccc(C[C@@H](C(=O)O)N2CCC(CN3CCC(Oc4ccc(Cl)c(Cl)c4)CC3)CC2)c1 |  |
| < 3 | 3.2 | Cc1c(Cl)ccc(OC2CCN(CC3CCN([C@@H](Cc4ccc(F)cc4)C(=O)O)CC3)CC2)c1Cl | half-life (in vivo): 0.8 h |
|  | 2.2 | N#Cc1ccc(C[C@@H](C(=O)O)N2CCC(CN3CCC(Oc4ccc(Cl)c(Cl)c4)CC3)CC2)cc1 |  |
|  | 1.8 | O=C(O)Cc1ccc(N2CCC(CN3CCC(Oc4ccc(Cl)c(Cl)c4)CC3)CC2)cc1 |  |
|  | 2.2 | Cc1c(OC2CCN(CC3CCN([C@@H](Cc4ccc(F)cc4)C(=O)O)CC3)CC2)ccc(C#N)c1Cl | microsomal CLint (in vitro; microsomes): 6 µL/min/mg |
|  | 1.1 | O=C(O)c1ccc(CN2CCC(CN3CCC(Oc4ccc(Cl)c(Cl)c4)CC3)CC2)cc1 |  |
| 4 | 2.6 | O=C(O)[C@H](Cc1ccc(F)cc1)N1CCC(CN2CCC(Oc3ccc(Cl)c(Cl)c3)CC2)CC1 |  |
| < 6 | 2.8 | Cc1cccc(C[C@@H](C(=O)O)N2CCC(CN3CCC(Oc4ccc(Cl)c(Cl)c4)CC3)CC2)c1 |  |
|  | 2.1 | Cc1cc(OC2CCN(CC3CCN([C@@](C)(Cc4ccc(F)cc4)C(=O)O)CC3)CC2)ccc1Cl | bioavailability [1]: 84% |
| < 3 | 2.9 | O=C(O)[C@H](Cc1ccc(Cl)cc1)N1CCC(CN2CCC(Oc3ccc(Cl)c(Cl)c3)CC2)CC1 |  |
|  | 2 | O=C(O)COc1cccc(N2CCC(CN3CCC(Oc4ccc(Cl)c(Cl)c4)CC3)CC2)c1 |  |
|  |  | O=C(O)C(c1ccccc1)N1CCCC(CN2CCC(Oc3ccc(Cl)c(Cl)c3)CC2)C1 (mixture of isomers) | CLint scaled (in vitro; liver microsomes): < 3 mL/min/kg |
|  | 2.1 | N#Cc1ccccc1C[C@@H](C(=O)O)N1CCC(CN2CCC(Oc3ccc(Cl)c(Cl)c3)CC2)CC1 | microsomal CLint (in vitro; microsomes): 6 µL/min/mg |
|  |  | Cc1ccc(S(=O)(=O)NC(=O)N2CCC(N3CCC(Oc4ccc(Cl)c(Cl)c4)CC3)CC2)cc1 | half-life (in vivo): 2.7 h; CLint scaled (in vitro; liver microsomes): 1 mL/min/kg; bioavailability [1]: 30% |
|  | 2.7 | O=C(O)[C@H](Cc1cccc(F)c1)N1CCC(CN2CCC(Oc3ccc(Cl)c(Cl)c3)CC2)CC1 |  |
